Assays:
[1] = Metabolic stability in human liver microsomes; assay type: in vitro ADME; conditions: 37° C., 0-60 minutes
Procedure: This example illustrates the metabolic stability of selected compounds in human liver microsomes samples.
Both test and control compound solutions were prepared by diluting 5 μL of the respective stock solutions (10 mM in DMSO) containing either the test or control compound with 495 μL of acetonitrile (ACN) to give intermediate solutions with concentrations of 100 μM (99% ACN).
β-Nicotinamide adenine dinucleotide phosphate tetrasodium salt (NADPH.4Na) was purchased from BONTAC (cat. No. BT04). The NADPH working solution (10 unit/mL) was prepared by combining the appropriate amount of NADPH powder and a MgCl2 solution (10 mM) to give final concentration in the reaction system of 1 unit/mL.
The appropriate concentrations of the microsome working solutions were prepared in 100 mM potassium phosphate buffer.
Cold (4° C.) acetonitrile solution containing 200 ng/mL tolbutamide and 200 ng/mL labetalol (internal standard) was used as the stop solution.
Liver microsomes solution was diluted to 0.56 mg/mL in 100 mM phosphate buffer, and 445 μL of this solution was transferred into pre-warmed (10 minutes) “incubation” plates T60 and NCF60; the “incubation” plates T60 and NCF60 were pre-warmed for 10 minutes at 37° C. with constant shaking.
54 μL of the liver microsome solutions was transferred to the blank plate, followed by addition of 6 μL of the NAPDH cofactor solution and 180 μL of the quenching solution to the same blank plate.
5 μL of the compound working solution (100 μM concentration) was next added to into the “incubation” plates (T60 and NCF60) containing microsomes and mixed 3 times thoroughly. For the NCF60 plate, 50 μL of the buffer solution was added, mixed 3 times thoroughly, and incubated at 37° C. for 60 minutes under constant shaking.
In the “Quenching” plate at T0 (T=0 min), 180 μL of quenching solution and 6 μL of the NAPDH cofactor solution were added, and the resulting plate was chilled to prevent evaporation.
In the T60 plate, after it was thoroughly mixed, 54 μL of the mixture was immediately transferred to the “quenching” plate for the 0-minute time point, followed by addition of 44 μL of NAPDH cofactor solution to the incubation plate (T60). The resulting mixture was then incubated at 37° C. for 60 minutes under constant shaking. At time points of 5, 10, 20, 30 and 60 minutes, 180 μL of the quenching solution was added to the “quenching” plates, followed by serial transfer of 60 μL of the mixture (per time point) from the T60 plate to the “Quenching” plates.
For the NCF60 plates, 60 μL of the sample solution was transferred from the NCF60 incubation plate to the “Quenching” plate containing quenching solution at T=60 min time point. […]

human PDE-5A1 = human PDE-5A1 (Homo sapiens, UniProt O76074); assay: Human PDE-5A1 inhibition assay (fluorescence polarization, FAM-cGMP); assay type: biochemical; conditions: read-out: IC50 (μM) PDE5A1
human PDE-6C = human PDE-6C (Homo sapiens, UniProt P51160); assay: Human PDE-6C inhibition assay (fluorescence polarization, FAM-cGMP); assay type: biochemical; conditions: read-out: IC50 (μM) PDE6C
Chain of human PDE-6C (P51160 whole entry): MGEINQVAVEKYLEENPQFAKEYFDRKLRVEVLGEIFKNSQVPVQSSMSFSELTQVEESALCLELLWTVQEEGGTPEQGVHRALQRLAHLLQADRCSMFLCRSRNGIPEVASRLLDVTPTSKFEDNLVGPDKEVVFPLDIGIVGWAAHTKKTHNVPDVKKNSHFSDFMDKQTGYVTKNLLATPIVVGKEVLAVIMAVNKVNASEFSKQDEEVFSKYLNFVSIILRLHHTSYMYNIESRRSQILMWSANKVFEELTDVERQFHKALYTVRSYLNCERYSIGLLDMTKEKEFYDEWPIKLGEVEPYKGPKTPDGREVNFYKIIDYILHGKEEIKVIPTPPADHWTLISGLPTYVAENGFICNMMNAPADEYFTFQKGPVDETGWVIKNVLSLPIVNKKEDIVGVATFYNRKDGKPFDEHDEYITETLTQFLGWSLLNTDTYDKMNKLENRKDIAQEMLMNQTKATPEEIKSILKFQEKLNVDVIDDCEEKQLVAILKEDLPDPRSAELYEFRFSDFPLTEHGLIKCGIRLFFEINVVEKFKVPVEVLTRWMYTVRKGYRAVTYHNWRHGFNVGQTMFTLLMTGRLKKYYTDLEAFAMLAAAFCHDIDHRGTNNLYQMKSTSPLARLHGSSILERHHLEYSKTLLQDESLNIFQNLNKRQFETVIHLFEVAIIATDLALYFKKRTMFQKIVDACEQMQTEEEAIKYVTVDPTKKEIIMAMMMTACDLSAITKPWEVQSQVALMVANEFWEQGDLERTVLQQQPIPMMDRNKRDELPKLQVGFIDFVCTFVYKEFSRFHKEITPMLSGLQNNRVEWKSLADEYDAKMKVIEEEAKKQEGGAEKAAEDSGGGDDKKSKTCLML

[2] = Plasma protein binding assay (equilibrium dialysis); assay type: in vitro ADME; conditions: human plasma, dialysis 4 hours at 37° C.
Procedure: (§1) The dialysis device used in this example is a 96-well equilibrium dialysis plate (Cat #1006, HT Dialysis LLC, Gales Gerry, CT), and HTD 96 a/b dialysis membrane strips (Cat #1101, MWCO 12-14 kDa, HT Dialysis LLC). The dialysis device was assembled following the manufacturer's instructions.
(§2) The dialysis membrane strips were soaked in ultra-pure water at room temperature for approximately 1 hour. Each membrane strip containing 2 membranes was separated and soaked in 20:80 ethanol/water (v/v) for approximately 20 minutes, after which they were ready for used or were stored in the solution at 2-8° C. for up to a month. Prior to experiment, the membrane was rinsed and soaked for 20 minutes in ultra-pure water.
(§3) On the day of the experiment, the plasma was thawed by running under col tap water and centrifuged at 3220 rpm for 5 minutes to remove any clos. The pH value of the resulting plasma was checked. Only plasma with pH value with 7.0-8.0 could be used.
(§4) Both test and control compounds were dissolved in DMSO to achieve 10 mM stock solutions. Working solutions (400 μM) if test and control compounds were prepared by diluting 10μ of stock solutions with 240 μL of DMSO. Loading matrix solutions (2 μM) of both test and control compounds were prepared by diluting 5 μL of working solutions with 995 μL of blank matrix.
(§5) To prepare the loading matrix containing the test compound or control compounds, aliquots of either test compound working solutions or control compound working solution were spiked into blank matrix to achieve final test concentrations. The concentration of organic solvent in the final solutions were no more than 1% (normally 0.5%). The samples were mixture thoroughly before being used.
(§6) To prepare the time zero (T0) samples to be used for recovery determinations. 50 μL aliquots of loading matrix solution were transferred in triplicate to the sample collection plate. The samples were immediately matched with opposite blank buffer to obtain a final volume of 100 μL of 1:1 matrix/dialysis buffer (v/v) in each well. 500 μL of stop solution were added to these T0 samples. They were then stored at 2-8° C. pending further processes along with other post-dialysis samples.
(§7) To load the dialysis device, an aliquot of 150 μL of the loading matrix was transferred to the donor side of each dialysis well in triplicate, and 150 μL of the dialysis buffer was loaded to the received side of the well. The dialysis was placed in humidified incubator at 37° C. with 5% CO2 on a shaking platform that rated slowly (about 100 rpm) for 4 hours.
(§8) At the end of the dialysis, aliquots of 50 μL of samples were taken from both the buffer side and the matrix side of the dialysis deice. These samples were transferred into new 96-well plates (the sample collection plates). Each sample was mixed with an equal volume of opposite blank matrix (buffer or matrix) to reach a final volume of 100 μL of 1:1 matrix/dialysis buffer (v/v) in each well. All samples were further processed by adding 500 μL of stop solution containing internal standards. The mixture was vortexed and centrifuged at 4000 rpm for about 20 minutes. An aliquot of 100 μL of supernatant of all the samples were then removed for LC-MS/MS analysis.
(§9) The single blank samples were prepared by transferring 50 μL of blank matrix to a 96 well plate and adding 50 μL of blank PBS buffer to each well. The blank plasma must match the species of plasma used in the plasma side of the well. Then the matrix-matched samples were further processed by adding 500 μL of stop solution containing internal standards, following the same sample processing method as the dialysis samples.

human plasma proteins = assay: as above; assay type: in vitro ADME; conditions: 2 μM, dialysis 4 hours at 37° C.
Procedure: as §1, §2, §3, §4, §5, §6, §7, §8, §9

## CCCc1nn(C)c2c(=O)[nH]c(-c3cc(S(=O)(=O)N4CC(NCCCO[N+](=O)[O-])C4)ccc3OCC)nc12 [Compound 22, 3-((1-((4-ethoxy-3-(1-methyl-7-oxo-3-propyl-6,7-dihydro-1H-pyrazolo[4,3-d]pyrimidin-5-yl)phenyl)sulfonyl)azetidin-3-yl)amino)propyl nitrate]
[1]
  CLint scaled at 1 µM: 358 mL/min/kg
Human PDE-5A1
  IC50: < 0.01 µM
Human PDE-6C
  IC50: < 0.01 µM
[2]
  fraction unbound at 4 h, 2 µM: 0.0247
Human plasma proteins
  % Bound: 97.53%

Reference: patent US20220153746A1, “NITROGEN OXIDE-DONATING PDE-5 AND/OR PDE-6 INHIBITOR COMPOUNDS, AND USES THEREOF” (ILDONG PHARMACEUTICAL CO., LTD., priority 2020, published 2022)
